Test results: patent US10583119B2, “Compounds, compositions and methods for making the same” (Signum Biosciences, Inc., priority 2008, dated 2020)
Read-outs that look alike come from different tables or passages of the source.

Experiments:
Type in all cases: biochemical
PP2A [1] = target: T1, PP2A (Homo sapiens, UniProt P67775); experiment: Phosphatase activity of PP2A using pNPP as substrate; settings: un-methylated PP2A, non-protein substrate pNPP, absence of ME and MT
T1 construct: made in house
Protocol: PP2A (10-200 nM) and pNPP (5-10 mM, Sigma) were mixed into 96-well plate (Fisher Scientific Inc.) in 50 μL of the buffer required. Reactions were performed at room temperature, and fully stopped by adding equal volume of 0.1 M EDTA. Production of p-nitrophenol […] was quantified by absorbance of reaction mixtures at 405 nm using the VMax® microplate reader (Molecular Devices).

PP2A [2] = target: T1, PP2A; experiment: Phosphatase activity of PP2A using phosphorylase a as substrate; settings: un-methylated PP2A, protein substrate phosphorylase a, absence of ME and MT
Protocol: After the reaction, proteins were precipitated by 50% (NH4)2SO4 (final concentration) twice, and collected by centrifugation. The pellet was re-dissolved and dialyzed in a buffer containing 50 mM Tris-HCl (pH6.9) and ImM DTT for 2×2 L at 4° C. overnight. Phosphorylase a (phospho-phosphorylase b) crystallized during the dialysis. The dialysate was centrifuged 14,000 r.p.m at 4° C. for 30 minutes, the supernatant was removed and purified ^32P-labelled phosphorylase a was re-dissolved in +50% glycerol, and stored at −20° C.
To measure PP2A's phosphatase activity, PP2A (5-20 nM) was incubated with phosphorylase a (5-10 μM) at 37° C. 10% TCA (final concentration) and was added to the reaction to precipitate proteins. Supernatant that contains free ^32P-phosphate group was added into scintillation counting solution (Ecoscint, National Diagnostics), and counted by scintillation counter (LS 6000SE, Beckman).

[3] = target: T2, protein phosphatase specific protein methylesterase (MEase) (Homo sapiens, UniProt Q9Y570); experiment: PP2A demethylation with [3H]-SAM and purified proteins (methylesterase activity)
T2 construct: made in house
T2 sequence (Q9Y570 1-386): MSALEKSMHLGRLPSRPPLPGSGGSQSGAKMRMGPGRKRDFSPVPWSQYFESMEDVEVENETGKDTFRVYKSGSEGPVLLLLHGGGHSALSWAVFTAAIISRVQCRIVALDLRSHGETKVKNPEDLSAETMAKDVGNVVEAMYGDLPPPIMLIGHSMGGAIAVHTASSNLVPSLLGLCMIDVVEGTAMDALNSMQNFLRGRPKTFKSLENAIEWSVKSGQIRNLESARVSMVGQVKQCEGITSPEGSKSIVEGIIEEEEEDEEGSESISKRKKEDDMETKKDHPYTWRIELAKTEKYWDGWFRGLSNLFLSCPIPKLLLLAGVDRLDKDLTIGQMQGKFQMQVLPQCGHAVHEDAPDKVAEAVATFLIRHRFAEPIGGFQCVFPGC
Protocol: PP2A (methylated and unmethylated) were eluted with 1.6 mL of Buffer A containing 350 mM NaCl. Fractions (0.2 mL each) were collected and the radioactivity in each fraction was measured using the scintillation counter (LS 6000SE, Beckman). Fractions with highest radioactivity were containing purified methylated PP2A were pooled with a total volume of 0.6 mL-0.8 mL. Purified methylated PP2A (50 nM-100 nM) was incubated with MEase (5 nM-20 nM) in 20 μl-50 μl reaction at room temperature for 30 minutes. The reaction was terminated by adding TCA (2 μl-6 μl) to a final concentration of 10%. Released [^3H]-methanol in supernatants was counted with scintillation counter (LS 6000SE, Beckman).

[4] = target: T3, protein phosphatase 2A specific methyltransferase (MTase) (Homo sapiens, UniProt Q9UIC8); experiment: PP2A methylation in 96-well plate format (methyltransferase activity); settings: purified PP2A, MTase and [3H]-SAM; read-out: MT (IC50)
T3 construct: His; made in house
Protocol: Purified PP2A, MTase and [^3H]-SAM, were incubated in reaction buffer at 37° C. At the end of the reaction, mixture was added onto the membranes of 96-well filter plate (Multiscreen™, Millipore). The membranes were then pre-wetted with 70% ethanol (50 μL/well) and then subsequently washed with water (2×200 μL/well). The reaction in each well was terminated and the proteins (5 μL-20 μL) were precipitated by adding 25% ice-cold TCA. The plate was kept on ice for 30 minutes to ensure completion of protein precipitation. Excess of the free SAM was then removed by washing with 5% cold TCA ([…]) and 70% cold ethanol (2×100 μL/well). Membranes were air-dried, radioactivity in each well was counted by TopCount^NXT scintillation counter (Packard) with 25 μL/well of Microsinct™ 20 (PerkinElmer).

[5] = purified methylated PP2A and MEase, read-out: ME (IC50)

T1 sequence (P67775 whole entry): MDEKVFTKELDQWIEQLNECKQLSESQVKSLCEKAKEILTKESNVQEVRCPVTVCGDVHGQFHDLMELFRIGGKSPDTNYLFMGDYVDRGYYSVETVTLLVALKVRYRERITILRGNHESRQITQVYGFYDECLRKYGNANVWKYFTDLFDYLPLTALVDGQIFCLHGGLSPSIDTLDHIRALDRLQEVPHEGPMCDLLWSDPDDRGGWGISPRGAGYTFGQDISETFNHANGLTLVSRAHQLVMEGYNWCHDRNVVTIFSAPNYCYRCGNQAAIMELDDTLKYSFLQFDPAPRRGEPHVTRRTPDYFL
T1 sequence (P30153 whole entry partner): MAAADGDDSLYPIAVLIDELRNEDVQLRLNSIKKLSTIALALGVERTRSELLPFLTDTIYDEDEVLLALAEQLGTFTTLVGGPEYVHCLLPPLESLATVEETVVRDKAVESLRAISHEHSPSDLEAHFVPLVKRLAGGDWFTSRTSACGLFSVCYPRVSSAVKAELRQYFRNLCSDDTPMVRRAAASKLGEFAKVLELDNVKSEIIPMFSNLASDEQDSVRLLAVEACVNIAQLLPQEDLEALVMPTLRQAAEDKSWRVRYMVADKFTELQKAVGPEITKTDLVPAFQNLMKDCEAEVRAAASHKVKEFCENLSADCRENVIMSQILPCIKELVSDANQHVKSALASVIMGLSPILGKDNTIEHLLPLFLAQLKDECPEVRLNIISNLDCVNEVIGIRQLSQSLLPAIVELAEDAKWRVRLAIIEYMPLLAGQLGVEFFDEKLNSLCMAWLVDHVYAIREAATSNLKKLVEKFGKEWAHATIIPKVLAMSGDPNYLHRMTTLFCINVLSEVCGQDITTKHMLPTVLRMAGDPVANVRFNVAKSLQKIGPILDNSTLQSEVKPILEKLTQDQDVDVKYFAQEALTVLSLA
T3 sequence (Q9UIC8 whole entry): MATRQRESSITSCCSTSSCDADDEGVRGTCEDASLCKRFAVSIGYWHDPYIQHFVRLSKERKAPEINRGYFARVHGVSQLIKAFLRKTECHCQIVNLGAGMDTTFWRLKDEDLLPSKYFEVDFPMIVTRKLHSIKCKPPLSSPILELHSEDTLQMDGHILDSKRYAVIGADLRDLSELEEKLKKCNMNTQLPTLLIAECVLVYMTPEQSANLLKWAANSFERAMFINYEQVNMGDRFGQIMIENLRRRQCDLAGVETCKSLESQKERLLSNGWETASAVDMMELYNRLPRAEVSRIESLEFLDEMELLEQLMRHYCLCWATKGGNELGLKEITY

Work on `CCCCCCC(O)CCCCCCCCCCC(=O)NCCc1c[nH]c2ccc(O)cc12` (stereo not shown) [Compound I-29, 12-hydroxy-N-[2-(5-hydroxy-1H-indol-3-yl)ethyl] octadecanamide] yielded an IC50 (PP2A [1]) of less than 10 µM, an IC50 (PP2A [2]) greater than 100 µM and an IC50 [3, 5] of 10 to 100 µM. For the same compound, the IC50 [4] was 10 to 100 µM.

Work on `CCCCCCCCCCCCCCCCNC(=O)NCCc1c[nH]c2ccc(O)cc12` [Compound I-30, 3-hexadecyl-1-[2-(5-hydroxy-1H-indol-3-yl)ethyl]urea] yielded an IC50 (PP2A [1]) of 10 to 100 µM, an IC50 (PP2A [2]) of 10 to 100 µM and an IC50 [3, 5] of less than 10 µM. For the same compound, the IC50 [4] was 10 to 100 µM.

Work on `CCCCCCCCCCCCCCCCCCNC(=O)NCCc1c[nH]c2ccc(O)cc12` [Compound I-31, 1-[2-(5-hydroxy-1H-indol-3-yl)ethyl]-3-octadecylurea] yielded an IC50 (PP2A [1]) of 10 to 100 µM, an IC50 (PP2A [2]) of 10 to 100 µM and an IC50 [3, 5] of less than 10 µM. The IC50 [4] was 10 to 100 µM.

In the case of `CCCCCCCCCCCCCCCCCCCC(=O)NCCc1c[nH]c2ccc(OC(=O)CCC(=O)O)cc12` [Compound I-32, 4-{[3-(2-icosanamidoethyl)-1H-indol-5-yl]oxy}-4-oxobutanoic acid], the IC50 (PP2A [1]) is reported as 10 to 100 µM, the IC50 (PP2A [2]) is reported as 10 to 100 µM and the IC50 [3, 5] is reported as less than 10 µM. For the same compound, the IC50 [4] was less than 10 µM.

`CCCCCCCCCCCCCCCCCCCC(=O)NCCc1c[nH]c2ccc(OC(C)=O)cc12` [Compound I-33, 3-(2-icosanamidoethyl)-1H-indol-5-yl acetate] gave an IC50 (PP2A [1]) of 10 to 100 µM, an IC50 [3, 5] of less than 10 µM and an IC50 [4] of less than 10 µM.

For `CCCCCCCCCCCCCCCCCCCC(=O)NCCc1c[nH]c2ccc(F)cc12` [Compound I-35, N-[2-(5-fluoro-1H-indol-3-yl)ethyl]icosanamide], the IC50 (PP2A [1]) was 10 to 100 µM, the IC50 (PP2A [2]) was greater than 100 µM and the IC50 [3, 5] was less than 10 µM. It also gave an IC50 [4] of less than 10 µM.

In the case of `CCCCCCCCCCCCCCCCCCCC(=O)NCCc1c[nH]c2ccc(C)cc12` [Compound I-36, N-[2-(5-methyl-1H-indol-3-yl)ethyl]icosanamide], the IC50 (PP2A [1]) is reported as 10 to 100 µM, the IC50 (PP2A [2]) is reported as greater than 100 µM and the IC50 [3, 5] is reported as 10 to 100 µM. For the same compound, the IC50 [4] was less than 10 µM.

Compound `CCCCCCCCCCCCCCCCCCCC(=O)N(C)CCc1c[nH]c2ccccc12` [Compound I-38, N-[2-(1H-indol-3-yl)ethyl]-N-methylicosanamide] has an IC50 (PP2A [1]) greater than 100 µM, an IC50 [3] greater than 100 µM and an IC50 [4] greater than 100 µM.

`CCCCCCCCCCCCCCCCCCNC(=O)Cc1c[nH]c2ccc(O)cc12` [Compound I-39, 2-(5-hydroxy-1H-indol-3-yl)-N-octadecylacetamide] was tested, and the IC50 (PP2A [1]) was 10 to 100 µM, the IC50 (PP2A [2]) was 10 to 100 µM and the IC50 [3, 5] was less than 10 µM. For the same compound, the IC50 [4] was 10 to 100 µM.

For `CCCCCCCCCCCCCCCCCCC(=O)NCCc1c[nH]c2ccc(O)cc12` [Compound I-67, N-(2-(5-hydroxy-1H-indol-3-yl)ethyl)nonadecanamide], the IC50 (PP2A [1]) was 10 to 100 µM, the IC50 (PP2A [2]) was greater than 100 µM and the IC50 [3, 5] was greater than 100 µM.

In the case of `CCCCCCCCCCCCCCCC(=O)NCCc1c[nH]c2ccc(O)cc12` [Compound I-76, N-(2-(5-hydroxy-1H-indol-3-yl)emyl)palmitamide], the IC50 (PP2A [1]) is reported as greater than 100 µM, the IC50 [3, 5] is reported as greater than 100 µM and the IC50 [4] is reported as greater than 100 µM.

In the case of `CCCCCCCCCC(=O)NCCc1c[nH]c2ccc(O)cc12` [Compound I-77, N-(2-(5-hydroxy-1H-indol-3-yl)ethyl)decanamide], the IC50 (PP2A [1]) is reported as greater than 100 µM, the IC50 [3, 5] is reported as greater than 100 µM and the IC50 [4] is reported as greater than 100 µM.

For `CCCCCCCCCCCCCCCCNC(=O)NC(Cc1c[nH]c2ccc(O)cc12)C(=O)O` (stereo not shown) [Compound I-78, 2-(3-hexadecylureido)-3-(5-hydroxy-1H-indol-3-yl)propanoic acid], the IC50 (PP2A [1]) was greater than 100 µM, the IC50 [3, 5] was less than 10 µM and the IC50 [4] was less than 10 µM.

`CCCCCCCCCCCCCCCCCCNC(=O)NC(Cc1c[nH]c2ccc(O)cc12)C(=O)O` (stereo not shown) [Compound I-79, 3-(5-hydroxy-1H-indol-3-yl)-2-(3-octadecylureido)propanoic acid] showed an IC50 (PP2A [1]) greater than 100 µM, an IC50 [3, 5] of 10 to 100 µM and an IC50 [4] of less than 10 µM.

`CCCCCCCCCCCCCCCCNC(=O)C(Cc1c[nH]c2ccccc12)NC(=O)OC(C)(C)C` (stereo not shown) [Compound I-80, tert-butyl 1-(hexadecylamino)-3-(1H-indol-3-yl)-1-oxpopran-2-ylcarbamate] showed an IC50 (PP2A [1]) of 10 to 100 µM, an IC50 [3, 5] of less than 10 µM and an IC50 [4] of less than 10 µM.
